PubChem BioAssay (NCI)
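Following 48 hours of exposure in 96-well plates, responses at five concentrations were used to interpolate endpoints linearly. TGI: total growth inhibition.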

Tests used:
Test in all cases: growth of human tumour cells (NCI), 48 h
[1] = tested on: SNB-19 CNS
[2] = tested on: CAKI-1 renal
[3] = tested on: NCI/ADR-RES ovarian
[4] = tested on: RXF 393 renal
[5] = tested on: SK-MEL-2 melanoma
[6] = tested on: BT-549 breast
[7] = tested on: HCT-15 colon
[8] = tested on: NCI-H23 lung
[9] = tested on: UO-31 renal
[10] = tested on: CCRF-CEM leukemia
[11] = tested on: DU-145 prostate
[12] = tested on: COLO 205 colon
[13] = tested on: UACC-62 melanoma
[14] = tested on: SK-MEL-5 melanoma
[15] = tested on: PC-3 prostate
[16] = tested on: SN12C renal
[17] = tested on: MCF7 breast
[18] = tested on: KM12 colon
[19] = tested on: MALME-3M melanoma
[20] = tested on: HCC-2998 colon
[21] = tested on: SK-MEL-28 melanoma
[22] = tested on: HT29 colon
[23] = tested on: M14 melanoma
[24] = tested on: IGROV1 ovarian
[25] = tested on: K-562 leukemia
[26] = tested on: LOX IMVI melanoma
[27] = tested on: NCI-H226 lung
[28] = tested on: SNB-75 CNS
[29] = tested on: MDA-MB-231 breast
[30] = tested on: HS 578T breast
[31] = tested on: UACC-257 melanoma
[32] = tested on: NCI-H460 lung
[33] = tested on: NCI-H522 lung
[34] = tested on: SF-539 CNS
[35] = tested on: OVCAR-3 ovarian
[36] = tested on: TK-10 renal
[37] = tested on: T-47D breast
[38] = tested on: A549 NSCLC
[39] = tested on: HCT-116 colon
[40] = tested on: MOLT-4 leukemia
[41] = tested on: OVCAR-5 ovarian
[42] = tested on: U251 CNS
[43] = tested on: HOP-62 NSCLC
[44] = tested on: SF-295 CNS
[45] = tested on: SF-268 CNS
[46] = tested on: RPMI-8226 leukemia
[47] = tested on: A498 renal
[48] = tested on: EKVX NSCLC
[49] = tested on: ACHN renal
[50] = tested on: SR leukemia
[51] = tested on: SK-OV-3 ovarian
[52] = tested on: OVCAR-8 ovarian
[53] = tested on: 786-0 renal
[54] = tested on: MDA-MB-435
[55] = tested on: SW-620 colon
[56] = tested on: OVCAR-4 ovarian
[57] = tested on: HL-60(TB) leukemia

## CN(Cc1cccc2ccccc12)Cc1cccc2ccccc12
[1]
  TGI: > 100 µM
[2]
  TGI: > 100 µM
[3]
  TGI: > 100 µM
[4]
  TGI: > 100 µM
[5]
  TGI: 31 µM
[6]
  TGI: > 100 µM
[7]
  TGI: > 100 µM
[8]
  TGI: > 100 µM
[9]
  TGI: > 100 µM
[10]
  TGI: 34 µM
[11]
  TGI: > 100 µM
[12]
  TGI: 35.2 µM
[13]
  TGI: > 100 µM
[14]
  TGI: 33.6 µM
[15]
  TGI: 57.7 µM
[16]
  TGI: > 100 µM
[17]
  TGI: 45 µM
[18]
  TGI: > 100 µM
[19]
  TGI: 63.4 µM
[20]
  TGI: 57.9 µM
[21]
  TGI: > 100 µM
[22]
  TGI: > 100 µM
[23]
  TGI: 74.3 µM
[24]
  TGI: > 100 µM
[25]
  TGI: > 100 µM
[26]
  TGI: > 100 µM
[27]
  TGI: 86.4 µM
[28]
  TGI: > 100 µM
[29]
  TGI: 64.1 µM
[30]
  TGI: > 100 µM
[31]
  TGI: > 100 µM
[32]
  TGI: > 100 µM
[33]
  TGI: 45.4 µM
[34]
  TGI: 59.6 µM
[35]
  TGI: > 100 µM
[36]
  TGI: > 100 µM
[37]
  TGI: 72.2 µM
[38]
  TGI: > 100 µM
[39]
  TGI: 55.8 µM
[40]
  TGI: 35 µM
[41]
  TGI: > 100 µM
[42]
  TGI: 49.6 µM
[43]
  TGI: > 100 µM
[44]
  TGI: > 100 µM
[45]
  TGI: > 100 µM
[46]
  TGI: 50.1 µM
[47]
  TGI: 80.1 µM
[48]
  TGI: > 100 µM
[49]
  TGI: > 100 µM
[50]
  TGI: 90.8 µM
[51]
  TGI: > 100 µM
[52]
  TGI: > 100 µM
[53]
  TGI: > 100 µM
[54]
  TGI: > 100 µM
[55]
  TGI: 57.9 µM
[56]
  TGI: > 100 µM
[57]
  TGI: 33.4 µM
